In patent US20230139543A1, “COMPOUNDS FOR USE IN A METHOD OF TREATING, PREVENTING AND/OR REDUCING THE SYMPTOMS OF PAIN” (The Beckley Foundation, priority 2020, published 2023):
Entries after “also recorded” stand apart in the source; their conditions may differ.

Columns and labels:
[1] = test system: healthy participants; experiment: Vital signs (heart rate, blood pressure); format: in vivo, human; conditions: single oral dose 20 μg LSD vs placebo; data not shown
Procedure: (§1) Twenty-four healthy participants (12 male, 12 female) participated in a randomized, double-blind, placebo-controlled, within-subject study in which they received single oral doses of 20 μg LSD (hydrate) and placebo on 4 separate test days. A minimum washout of 5 days proceeded in between to avoid carry-over effects. Treatment orders were randomly assigned to participants according to a balanced block design. LSD was formulated as a solution of 25 μg LSD base in 1 ml 96% ethanol according to GMP and administered orally. LSD doses (0.8 ml for 20 μg LSD) were supplemented with an ethanol solution up to a total volume 1 ml and administered with a syringe under the tongue. Placebo consisted of a 1 ml ethanol solution only. Treatments were administered at 10 AM.
(§2) At 1.5 and 5 hours post treatment, participants conducted a Cold Pressor Test (further described below). The Brief Symptom Inventory and the Clinician Administered Dissociation State Scale (CADSS) were administered prior to treatment administration (baseline) and at the end of a test day, i.e. at 6 hours post dosing. Vital signs were recorded at baseline, every 30 minutes during the first three hours after dosing, and at every hour thereafter. Blood samples were collected at every hour. Participants resided in a secluded room that contained a bed, table and chairs. Standardized lunches were provided around 12 AM.
Heart rate (bpm) and blood pressure (mmHg) were repeatedly assessed using an Omron M6 (HEM-7321-E, Omron Healthcare Europe By) device.
(§3) Analyses were carried out by means of the SPSS 25 program series to investigate whether the effects of LSD doses differed from those of placebo. CPT parameters and baseline adjusted parameters of vital signs were analysed using a three factor ANOVA to assess main effects of Treatment, Time after treatment and Participant as well as the interaction Treatment×Time after treatment. Mean contrast (LSD dose versus placebo) tests were conducted for measuring the significance of individual dose effects, relative to placebo. […]

[2] = test system: healthy participants; experiment: Cold Pressor Test (CPT), placebo-controlled trial; format: in vivo, human; conditions: single oral dose 20 μg LSD vs placebo, 1.5 and 5 hours post treatment
Procedure: as §1, §2
The CPT was used to induce a painful sensation according to previously validated procedure (Smeets et al. Psychoneuroend. 2012, 37, 1998-2008). The CPT is the most commonly used test to induce conditioned pain modulation and to evaluate analgesic properties such as pain tolerance in healthy subjects (see, for instance, Okkerse et al. Br J Clin Pharmacol. 2017, 83(5), 976-990; Oaks et al. Discov Med. 2018, 26(144), 197-206). […]
A water tank was filled with water that was cooled to 3° C. […] Dependent measures of the CPT included pain tolerance (sec) and subjective ratings of painfulness, unpleasantness and stress as assessed 10 cm visual analogue scales. Water temperature at onset and completion of the CPT were assessed as control measure.
as §3, with “treatment.” for “treatment. Mean contrast (LSD dose versus placebo) tests were conducted for measuring the significance of individual dose effects, relative to placebo.”

[3] = Pharmacokinetics: LSD plasma levels by UHPLC-MS/MS; format: in vivo; conditions: both sexes, human, single oral dose 20 μg LSD, read-out: mean (SD) plasma LSD concentration
Procedure: as §1
At 1.5 and 5 hours post treatment, participants conducted a Cold Pressor Test (further described below). […] Vital signs were recorded at baseline, every 30 minutes during the first three hours after dosing, and at every hour thereafter. […]
Blood samples were centrifuged, and plasma was frozen at −20° C. until analysis for pharmacokinetic assessments. LSD plasma levels were analysed by ultra-high-performance liquid chromatography tandem mass spectrometry (UHPLC-MS/MS) as previously described previously. PK Samples with a LSD concentration below […] were re-analysed by a different extraction procedure. […]

With CCN(CC)C(=O)[C@@H]1C=C2c3cccc4[nH]cc(c34)C[C@H]2N(C)C1 [LSD, (D)-lysergic acid diethylamide] the diastolic blood pressure [1] was “slightly increased”, the heart rate [1] was “not affected” and the systolic blood pressure [1] was “slightly increased”. For the same molecule, the “stress during the CPT (10 cm visual analogue scale)” value [2] was “did not lead to a significant change; also recorded: not affected”, the “pain tolerance during the CPT” value ([2]; p=0.006) was “significant increase; also recorded: significantly increased” and the “unpleasantness during the CPT (10 cm visual analogue scale)” value ([2]; p=0.008) was “significant decrease; also recorded: decreased”. For the same molecule, the “painfulness during the CPT (10 cm visual analogue scale)” value ([2]; p=0.012) was “significant decrease; also recorded: decreased”, the concentration at 1.5 h ([3]; 1.5 hours after administration) was 0.482 ng/mL and the concentration at 6 h ([3]; 6 hours post treatment) was 0.223 ng/mL.
